According to US6806230B1, “Pyrimidine derivatives and herbicides containing them” (Kumiai Chemical Industry Co., Ltd., priority 1999, dated 2004):

Tests used:
Assay type in all cases: in vivo
monochoria (Mo) [1] = assay: Test Example 1: herbicidal effects by flooded paddy field treatment; parameters: herbicidal effects, Mo (monochoria):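 0-5 growth inhibition grade; 5 = over 90%; 4 = 70-90%; 3 = 50-70%; 2 = 30-50%; 1 = 10-30%; 0 = under 10%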; conditions: dose 100 g active ingredient per 10 ares, examined on the 21st day after treatment, standards of Table 44
Summary of the method: (§1)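 Herbicidal effect is a graded score assigned 21 days after treatment. Application was one day after sowing into flooded (3 cm) puddled paddy soil, with diluted wettable powder dropped onto the water at 100 g active ingredient per 10 ares. Plants were kept in a greenhouse.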

rice (Or) = assay: Test Example 4: selectivity for a crop plant by flooded paddy field treatment; parameters: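 0-5 phytotoxicity grade; 5 = over 90%; 4 = 70-90%; 3 = 50-70%; 2 = 30-50%; 1 = 10-30%; 0 = under 10%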; conditions: rice transplanted at second leaf stage, dose 25 gai/10a, 21st day after treatment, index per Table 44
Summary of the method: (§2)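 Scores reflect visual herbicidal effect, graded on a standard scale 21 days after water-surface treatment. The product, a wettable powder diluted with water, went on dropwise at 25 g a.i. per 10 ares one day after flooding to 3 cm. Weeds grew from sown seed and rice was transplanted at second-leaf stage.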

barnyard grass (Eo) [2] = assay: as above; parameters: scale not given here; conditions: barnyard grass, dose 25 gai/10a, 21st day after treatment, index per Table 44
Summary of the method: as §2

monochoria (Mo) [3] = assay: as above; parameters: scale not given here; conditions: monochoria, dose 25 gai/10a, 21st day after treatment, index per Table 44
Summary of the method: as §2

barnyard grass (Eo) [4] = assay: Test Example 1: herbicidal effects by flooded paddy field treatment; parameters: herbicidal effects, Eo (barnyard grass):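 0-5 growth inhibition grade; 5 = over 90%; 4 = 70-90%; 3 = 50-70%; 2 = 30-50%; 1 = 10-30%; 0 = under 10%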; conditions: dose 100 g active ingredient per 10 ares, examined on the 21st day after treatment, standards of Table 44
Summary of the method: as §1

barnyard grass (Ec) [5] = assay: Test Example 3: herbicidal effects by foliage treatment in upland field; parameters: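 0-5 growth inhibition grade; 5 = over 90%; 4 = 70-90%; 3 = 50-70%; 2 = 30-50%; 1 = 10-30%; 0 = under 10%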; conditions: dose 100 g active ingredient per 10 ares, examined on the 14th day after treatment
Summary of the method: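 Barnyard grass and green foxtail were grown in upland soil for 2 weeks in a greenhouse. A water-diluted wettable powder was sprayed over the foliage at 100 l per 10 ares, giving 100 g active ingredient per 10 ares. Herbicidal effect was scored on day 14 after treatment.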

barnyard grass (Ec) [6] = assay: Test Example 2: herbicidal effects by upland soil treatment; parameters: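 0-5 growth inhibition grade; 5 = over 90%; 4 = 70-90%; 3 = 50-70%; 2 = 30-50%; 1 = 10-30%; 0 = under 10%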; conditions: dose 100 g active ingredient per 10 ares, examined on the 21st day after treatment
Summary of the method: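 Pre-emergence test: barnyard grass and green foxtail sown in upland soil, then soil surface sprayed with wettable-powder formulation at 100 g active ingredient per 10 ares (100 l per 10 ares). Grown in greenhouse; herbicidal effect scored on a rating scale 21 days after treatment.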

| SMILES | herbicidal effects, Mo (monochoria) (monochoria (Mo) [1]) | Or (herbicidal effect index on crop) (rice (Or)) | Eo (herbicidal effect index) (barnyard grass (Eo) [2]) | Mo (herbicidal effect index) (monochoria (Mo) [3]) | herbicidal effects, Eo (barnyard grass) (barnyard grass (Eo) [4]) | Ec (herbicidal effects, index) (barnyard grass (Ec) [5]) | Ec (herbicidal effects, index) (barnyard grass (Ec) [6]) |
| --- | --- | --- | --- | --- | --- | --- | --- |
| C#CCN(C(=O)Cc1ccc(F)cc1)C(c1cncnc1CC)C(C)C (racemic) [1-559] | 5 | 1 | 5 | 5 | 5 | 4 | 5 |
| CCc1ncncc1C(N(C)C(=O)Cc1ccc(Cl)cc1)C(C)(C)C (racemic) [1-566] | 5 | 1 | 5 | 5 | 5 | 4 | 5 |
| C#CCN(C(=O)Cc1cccc(F)c1)C(c1cncnc1C(F)(F)F)C(C)C (racemic) [1-569] | 5 | 1 | 5 | 5 | 5 | 5 | 5 |
| CCC(c1cncnc1C(C)(C)C)N(C)C(=O)Cc1ccc(Cl)cc1 (racemic) [1-572] | 5 | 1 | 5 | 5 | 5 | 4 | 5 |
| CC(C)C(c1cncnc1C(F)(F)F)N(CC#N)C(=O)Cc1ccc(F)cc1 (racemic) [1-579] | 5 | 1 | 5 | 5 | 5 | 4 | 5 |
| COCC(c1cncnc1C(C)C)N(C)C(=O)Cc1ccc(Cl)cc1 (racemic) [1-584] | 5 | 1 | 5 | 5 | 5 | 4 | 5 |
| C#CCN(C(=O)Cc1ccccc1)C(CCC)c1cncnc1CC (racemic) [1-606] | 5 | 1 | 5 | 5 | 5 | 4 | 5 |
| C#CCN(C(=O)Cc1ccc(F)cc1)C(CCC)c1cncnc1CC (racemic) [1-607] | 5 | 1 | 5 | 5 | 5 | 4 | 4 |
| C#CCN(C(=O)Cc1ccc(C)cc1)C(CCC)c1cncnc1CC (racemic) [1-609] | 5 | 1 | 5 | 5 | 5 | 4 | 5 |
| C#CCN(C(=O)Cc1ccc(F)cc1)C(CCC)c1cncnc1C(C)C (racemic) [1-611] | 5 | 1 | 5 | 5 | 5 | 4 | 5 |
| CC(C)C(c1cncnc1C(F)(F)F)N(C)C(=O)Cc1ccc(Cl)s1 (racemic) [2-25] | 5 | 1 | 5 | 5 | 5 | 5 | 5 |
